Test results taken from paper PMC7922564, “Molecular Insights into an Antibiotic Enhancer Action of New Morpholine-Containing 5-Arylideneimidazolones in the Fight against MDR Bacteria” (International Journal of Molecular Sciences, 2021).
Read-outs that look alike come from different tables or passages of the source.

Columns and labels:
[1] = tested on: K. aerogenes Ea-289; assay: MIC reduction assay (antibiotic adjuvant), K. aerogenes Ea-289; type: cell-based, Klebsiella aerogenes;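 also: compound at no more than one quarter of its own MIC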
Protocol: At first, MIC values of compounds were determined (Table S15, Supplementary). Next, their abilities to reduce MICs of the AcrAB-TolC substrates doxycycline (a tetracycline-class antibiotic) and erythromycin were studied (Table S16, Supplementary).
(§1) A subset of compounds, namely 7, 12–16, 19, 20, was also examined for the potential to increase the effectiveness of the antibiotics chloramphenicol, erythromycin, doxycycline, and the fluoroquinolone antibiotic norfloxacin, which all are substrates for AcrAB-TolC in K. aerogenes. In addition to strain Ea-289, the adjuvant-like effect of the compounds was investigated in strain CM-64, which also overexpresses the AcrAB-TolC efflux pump, although it has no changes in porin content, and in the Ea-289 derivatives, i.e., Ea-294 and Ea-308, which are devoid of AcrAB (Table S17, Supplementary).
(§2) Initially, MICs of a series of imidazolone derivatives were assessed against susceptible (reference) and MDR strains of staphylococci. Next, MIC values of the aforementioned antibiotics were determined in the absence and presence of imidazolone derivatives to assess the chemosensitizing effect of these compounds. […] 5-arylideneimidazolones and 5-arylidenethiazolones, which precipitated after addition to bacterial suspension in MH II medium, were tested at the highest concentrations at which precipitation was not observed. […] Antibacterial activity of compounds and antibiotics ampicillin, vancomycin, ciprofloxacin, and erythromycin was recorded as the lowest concentration of molecules able to inhibit bacterial growth after 18 h incubation at 37 °C. The incubation of bacterial strains exposed to oxacillin paired with compounds tested was conducted at 35 °C and extended to 24 h due to frequent occurrence of heterogeneity among MRSA strains. The results are presented as activity gain (A) parameter which was calculated as ratio of MIC of a certain antibiotic (MICAnt) to its MICAnt+Comp, observed in combination with a tested compound (7, 12–16, 19, or 20; Equation (1)). (1) A=(MICAnt/MICAnt+Comp)
(§3) MIC values of 5-arylideneimidazolone derivatives were determined following CLSI recommendations as in the methods described for S. aureus (Section 3.3.1).

[2] = tested on: K. aerogenes Ea-289 (overexpression of AcrAB-TolC); assay: MIC of compounds, K. aerogenes Ea-289; type: cell-based; conditions: Klebsiella aerogenes
Protocol: At first, MIC values of compounds were determined (Table S15, Supplementary). Next, their abilities to reduce MICs of the AcrAB-TolC substrates doxycycline (a tetracycline-class antibiotic) and erythromycin were studied (Table S16, Supplementary). […]
(§4) Determination of MIC values, i.e., intrinsic antibacterial activity, of products and antibiotics (oxacillin, ampicillin, vancomycin, ciprofloxacin, and erythromycin) in the presence and absence of compounds tested was conducted by the use of a standard 2-fold microdilution method in cation-adjusted Mueller Hinton broth following the Clinical and Laboratory Standards Institute (CLSI) guidelines. The MIC values were detected using an Infinite M200 pro Tecan microplate reader (Tecan® France, SA-Lyon, France). MIC determinations were conducted in 96-well microtiter plates and repeated 3–4 times.
as §3

[3] = tested on: S. aureus ATCC 25923; assay: MIC determination (microdilution), S. aureus ATCC 25923; type: cell-based, Staphylococcus aureus; conditions: Staphylococcus aureus, ATCC25923, unstarred values of column MIC value/no precipitation; read-out: MIC value
Protocol: as §4, §2

[4] = tested on: MRSA 19449; assay: MIC determination (microdilution), MRSA 19449; type: cell-based, Staphylococcus aureus; conditions: Staphylococcus aureus, MRSA, no precipitation
Protocol: as §4, §2

[5] = tested on: K. aerogenes CM-64; set-up: method as in earlier work; conditions: doxycycline, chloramphenicol, norfloxacin, already published, cited from earlier work
[6] = tested on: K. aerogenes Ea-289; set-up: method as in earlier work; conditions: doxycycline, chloramphenicol, norfloxacin, already published, cited from earlier work
[7] = tested on: K. aerogenes Ea-294, Ea-308; set-up: method as in earlier work; conditions: doxycycline, chloramphenicol, norfloxacin, already published, cited from earlier work
[8] = tested on: AcrAB-TolC efflux pump in K. aerogenes strain Ea-289; set-up: method as in PMID 30691112; conditions: compound 100 µM; previously described; cited from earlier work
[9] = tested on: S. aureus ATCC 25923; set-up: method as in earlier work; conditions: published previously, cited from earlier work
[10] = tested on: K. aerogenes CM-64 (overexpression of AcrAB-TolC); assay: MIC of compounds, K. aerogenes CM-64; type: cell-based; conditions: Klebsiella aerogenes, read-out: Minimal Inhibitory Concentration (MIC)
Excerpt: as §1, §4, §3

[11] = tested on: K. aerogenes Ea-294, Ea-308 (devoid of AcrAB); assay: MIC of compounds, K. aerogenes Ea-294, Ea-308; type: cell-based; conditions: Klebsiella aerogenes, read-out: Minimal Inhibitory Concentration (MIC)
Excerpt: as §1, §4, §3

[12] = tested on: S. aureus ATCC 25923; set-up: method as in earlier work; conditions: starred (*) value; published previously; cited from earlier work
[13] = read-out: MIC value/no precipitation

SMILES | A (activity gain) ([1]; doxycycline) | A (activity gain) ([1]; erythromycin) | melting point | MIC [2, 13] | MIC [3] | MIC [4] | MIC reduction ([5]; erythromycin + compound) | A (activity gain) ([5]; erythromycin) | MIC reduction ([6]; erythromycin + compound) | A (activity gain) ([6]; erythromycin) | MIC reduction ([7]; erythromycin + compound) | A (activity gain) ([7]; erythromycin) | Inhibition efficiency (IE) towards extrusion of 1,2'-dNA [8] | MIC reduction ([9]; oxacillin alone to oxacillin + compound) | A (activity gain) ([9]; oxacillin) | MIC [10] | MIC ([2]; read-out: Minimal Inhibitory Concentration (MIC)) | MIC [11] | no precipitation: highest possible concentration of a compound (due to precipitation) at which growth of bacteria was observed [12]
Cl.NC1=N/C(=C\c2cccc3ccccc23)C(=O)N1CCCN1CCOCC1 [Compound 18, (Z)-5-(Naphthalen-1-ylmethylene)-2-Amino-3-(3-Morpholinopropyl)-Imidazol-4(5H)-one Hydrochloride] | 1 | 1 | 265 to 268 °C | > 250 µM | 1000 µM | 2000 µM | – | – | – | – | – | – | – | – | – | – | – | – | –
NC1=N/C(=C\c2c3ccccc3cc3ccccc23)C(=O)N1CCCN1CCOCC1 [Compound 20] | – | – | – | – | 31.2 to 250 µM | 31.2 to 250 µM | No effect | 1 | No effect | 1 | No effect | 1 | 44% | No effect | 1 | > 2000 µM | > 2000 µM | 2000 µM | 0.0625 mM
Cl.O=C1N=C(N2CCC(N3CCOCC3)CC2)S/C1=C\c1ccc2c(c1)Cc1ccccc1-2 [Compound 22, (Z)-5-((9H-Fluoren-2-yl)methylene)-2-(4-Morpholinopiperidin-1-yl)Thiazol-4-one Hydrochloride] | 1 | 1 | 244 to 246 °C | > 250 µM | 62.5 µM | 31.2 to 250 µM | – | – | – | – | – | – | – | – | – | – | – | – | –
Cl.O=C1N=C(NCCCN2CCOCC2)S/C1=C\c1ccc2c(c1)Cc1ccccc1-2 [Compound 23, (Z)-5-((9H-Fluoren-2-yl)methylene)-2-((3-Morpholinopropyl)amino)Thiazol-4(5H)-one Hydrochloride] | 1 | 1 | 243 to 245 °C | > 62.5 µM | 31.2 to 250 µM | 31.2 to 250 µM | – | – | – | – | – | – | – | – | – | – | – | – | –
